The values below come from patent US7767696B2, “Pyrazole derivatives” (Merck Patent GmbH, priority 2005, dated 2010).

Structures are written as SMILES.

In one experiment the target is TIE-2 (Homo sapiens, UniProt Q02763). Put plainly: TIE-2 kinase flashplate assay (phosphorylation of poly(Glu, Tyr) with 33P-ATP). The class given is biochemical. The settings on record: read-out: Kinase-Inhibiting Activities IC50 TIE-2. The procedure:
The TIE-2 tests can be carried out, for example, analogously to the methods indicated in WO 02/44156.
The assay determines the inhibiting activity of the substances to be tested in the phosphorylation of the substrate poly(Glu, Tyr) by Tie-2 kinase in the presence of radioactive ^33P-ATP. The phosphorylated substrate binds to the surface of a “flashplate” microtitre plate during the incubation time. After removal of the reaction mixture, the microtitre plate is washed a number of times and the radioactivity on its surface is subsequently measured. An inhibiting effect of the substances to be measured results in lower radioactivity compared with an undisturbed enzymatic reaction.

A further experiment has as its target T1, VEGFR (KDR) (Homo sapiens, UniProt P35968).
T1 construct: cloning the cytoplasmic domain of the KDR kinase as an in frame fusion at the carboxyl terminus of the GST gene; made in house; host or cells: Spodoptera frugiperda (Sf21) insect cells, baculovirus vector pAcG2T
The experiment in a line: VEGF receptor kinase assay (33P incorporation into pEY substrate). The class given is biochemical. To be noted: read-out: Kinase-Inhibiting Activities IC50 VEGFR. As for the experimental part: VEGF receptor kinase activity is measured by incorporation of radiolabelled phosphate into 4:1 polyglutamic acid/tyrosine substrate (pEY). The phosphorylated pEY product is trapped on a filter membrane and the incorporation of radiolabelled phosphate is quantified by scintillation counting.
The intracellular tyrosine kinase domains of human KDR (Terman, B. I. et al. Oncogene (1991) Vol. 6, pp. 1677-1683.) and Flt-1 (Shibuya, M. et al. Oncogene (1990) Vol. 5, pp. 519-524) were cloned as glutathione S-transferase (GST) gene fusion proteins. This was accomplished by cloning the cytoplasmic domain of the KDR kinase as an in frame fusion at the carboxyl terminus of the GST gene. Soluble recombinant GST-kinase domain fusion proteins were expressed in Spodoptera frugiperda (Sf21) insect cells (Invitrogen) using a baculovirus expression vector (pAcG2T, Pharmingen).
Method B—VEGF Receptor Kinase Assay
1. Add 5 μl of inhibitor or control to the assay in 50% DMSO.
2. Add 35 μl of reaction mixture containing 5 μl of 10× reaction buffer, 5 μl of 25 mM ATP/10 μCi[^33P]ATP (Amersham) and 5 μl of 10× substrate.
3. Start the reaction by the addition of 10 μl of KDR (25 nM) in enzyme dilution buffer.
4. Mix and incubate at room temperature for 15 minutes.
5. Stop the reaction by the addition of 50 μl of stop solution.
6. Incubate at 4° C. for 15 minutes.
7. Transfer a 90 μl aliquot to filter plate.
8. Aspirate and wash 3 times with wash solution.
9. Add 30 μl of scintillation cocktail, seal plate and count in a Wallace Microbeta scintillation counter.

T1 sequence (P35968 786-1356 limits assumed): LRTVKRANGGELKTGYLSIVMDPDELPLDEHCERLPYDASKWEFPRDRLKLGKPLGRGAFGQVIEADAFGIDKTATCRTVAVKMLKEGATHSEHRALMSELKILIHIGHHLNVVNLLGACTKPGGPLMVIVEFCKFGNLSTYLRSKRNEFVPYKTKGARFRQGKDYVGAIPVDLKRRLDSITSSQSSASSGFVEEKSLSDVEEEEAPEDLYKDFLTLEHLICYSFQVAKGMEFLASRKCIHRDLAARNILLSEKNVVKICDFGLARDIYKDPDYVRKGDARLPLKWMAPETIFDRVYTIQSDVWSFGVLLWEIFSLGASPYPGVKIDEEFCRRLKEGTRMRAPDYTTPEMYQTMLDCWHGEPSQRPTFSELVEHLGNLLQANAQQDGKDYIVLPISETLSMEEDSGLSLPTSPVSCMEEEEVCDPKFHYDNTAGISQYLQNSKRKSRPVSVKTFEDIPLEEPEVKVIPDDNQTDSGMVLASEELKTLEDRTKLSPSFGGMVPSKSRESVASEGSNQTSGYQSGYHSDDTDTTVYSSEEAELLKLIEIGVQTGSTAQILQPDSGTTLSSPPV
Sequence of TIE-2 (Q02763 23-1124, species assumed): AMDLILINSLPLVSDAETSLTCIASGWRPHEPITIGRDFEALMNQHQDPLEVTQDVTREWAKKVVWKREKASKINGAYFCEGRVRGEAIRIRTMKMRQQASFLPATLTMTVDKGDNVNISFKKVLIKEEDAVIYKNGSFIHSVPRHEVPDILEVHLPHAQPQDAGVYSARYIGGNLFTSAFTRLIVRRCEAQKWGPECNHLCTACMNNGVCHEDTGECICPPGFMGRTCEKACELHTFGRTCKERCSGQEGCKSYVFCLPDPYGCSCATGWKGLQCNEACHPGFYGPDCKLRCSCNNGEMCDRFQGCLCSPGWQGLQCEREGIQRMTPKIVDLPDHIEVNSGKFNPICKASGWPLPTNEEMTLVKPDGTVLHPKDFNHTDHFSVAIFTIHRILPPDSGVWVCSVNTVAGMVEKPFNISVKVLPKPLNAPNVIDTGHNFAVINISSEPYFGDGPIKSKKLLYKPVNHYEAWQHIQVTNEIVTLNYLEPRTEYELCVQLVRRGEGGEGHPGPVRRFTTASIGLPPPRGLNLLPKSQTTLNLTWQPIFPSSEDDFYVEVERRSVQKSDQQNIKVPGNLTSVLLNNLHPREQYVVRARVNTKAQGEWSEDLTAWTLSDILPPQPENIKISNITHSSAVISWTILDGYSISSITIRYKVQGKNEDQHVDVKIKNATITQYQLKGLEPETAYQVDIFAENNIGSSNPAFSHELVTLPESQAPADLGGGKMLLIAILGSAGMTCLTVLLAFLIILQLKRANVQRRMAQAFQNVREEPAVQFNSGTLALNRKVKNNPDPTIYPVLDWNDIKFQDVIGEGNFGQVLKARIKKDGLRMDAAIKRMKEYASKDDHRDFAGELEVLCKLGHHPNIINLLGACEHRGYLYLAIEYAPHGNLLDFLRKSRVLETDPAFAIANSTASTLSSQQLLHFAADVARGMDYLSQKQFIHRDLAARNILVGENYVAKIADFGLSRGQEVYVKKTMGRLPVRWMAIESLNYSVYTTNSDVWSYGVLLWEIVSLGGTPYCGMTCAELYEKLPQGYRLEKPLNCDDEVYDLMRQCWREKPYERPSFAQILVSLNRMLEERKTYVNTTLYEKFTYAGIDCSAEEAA

As for `CNC(=O)c1cc(Oc2ccc(NC(=O)Nc3cc(C(C)(C)C)nn3-c3cccc(C(F)(F)F)c3)cc2)ccn1` [Compound 11, 1-[4-(2-Methylaminocarbonylpyridin-4-yloxy)phenyl]-3-[5-tert-butyl-2-(3-trifluoromethylphenyl)-2H-pyrazol-3-yl]urea], the IC50 was found to be 3.2 nM on TIE-2 and 134 nM on VEGFR (KDR).
Take `CNC(=O)c1cc(Oc2ccc(NC(=O)Nc3cc(-c4ccco4)nn3-c3ccc(C)cc3)cc2)ccn1` [Compound 2, 1-[4-(2-methylaminocarbonylpyridin-4-yloxy)phenyl]-3-[5-(furan-2-yl)-2-(p-tolyl)-2H-pyrazol-3-yl]urea]: the IC50 at TIE-2 came to 4.3 nM; at VEGFR (KDR) it was 33.5 nM.
In the same order, the values of `CNC(=O)c1cc(Oc2ccc(NC(=O)Nc3cc(C(C)(C)C)nn3-c3ccc(F)cc3)cc2)ccn1` [Compound 1, 1-[4-(2-methylaminocarbonylpyridin-4-yloxy)phenyl]-3-[5-tert-butyl-2-(4-fluorophenyl)-2H-pyrazol-3-yl]urea] are 6.5 nM and 110 nM.
In the same order, the values of `CNC(=O)c1cc(Oc2ccc(NC(=O)Nc3cc(-c4ccco4)nn3-c3ccc(F)cc3)cc2)ccn1` [Compound 3, 1-[4-(2-Methylaminocarbonylpyridin-4-yloxy)phenyl]-3-[5-(furan-2-yl)-2-(4-fluorophenyl)-2H-pyrazol-3-yl]urea] are 9.7 nM and 74.8 nM.
Taken in the same sequence, the figures for `CNC(=O)c1cc(Oc2ccc(NC(=O)Nc3cc(C(C)(C)C)nn3-c3ccc(C)cc3)cc2)ccn1` [Compound 8, 1-[4-(2-Methylaminocarbonylpyridin-4-yloxy)phenyl]-3-[5-tert-butyl-2-(p-tolyl)-2H-pyrazol-3-yl]urea] were 7.2 nM and 58 nM.
